In ChEMBL document CHEMBL1150185, “Antineoplastic agents, 195. Isolation and structure of aceratioside from Aceratium megalospermum” (1990):
Converted amounts (≈) assume the structure as drawn.

Tested on: P388
Assay: Cytostatic activity against mouse P388 cells
Assay type: functional
Conditions: read-out: ED50 (the source's name)

EC50: 9 µg/mL (≈ 24.3 µM)
Structure (SMILES): O=C(O)[C@H]1CCc2c(cc(O)cc2O[C@@H]2O[C@H](CO)[C@@H](O)[C@H](O)[C@H]2O)C1 [ACERATIOSIDE]
